Experimental data published in ChEMBL document CHEMBL1148124, “New lanostanoids, elfvingic acids A-H, from the fruit body of Elfvingia applanata” (J Nat Prod, 2002).
In brackets after ≈: the same amount, converted by molar mass.

Key:
[1] = Cytotoxicity against human KATO III cells after 72 hrs by MTT assay; type: functional, cell-based, KATO III cell
Ehrlich = test: Cytotoxicity against mouse Ehrlich cells after 72 hrs by MTT assay; type: functional, cell-based

C=C(C)[C@@H]1C[C@H]2O[C@@]23C(=CC(=O)[C@]2(C)[C@@H](/C(C)=C\C(O)CC(C)C(=O)O)C[C@@H](O)[C@]23C)[C@@]1(C)CCC(=O)OC (some centres undefined)
IC50 [1]: 1.1 µg/mL (≈ 2.02 µM) | IC50 (Ehrlich): 1.1 µg/mL (≈ 2.02 µM)

CC(C)c1cccc(=O)c(O)c1 [HINOKITIOL]
IC50 [1]: 0.6 µg/mL (≈ 3.65 µM) | IC50 (Ehrlich): 0.6 µg/mL (≈ 3.65 µM)
